Experimental data from ChEMBL document CHEMBL3991601, “The target landscape of clinical kinase drugs” (Science, 2017).
Active and inactive are the calls of the source.

Key:
[1] = biological target: Adenosine kinase (Homo sapiens, UniProt P55263)
[2] = biological target: T1, Adenine phosphoribosyltransferase (Homo sapiens, UniProt P07741)
T1 sequence (P07741 whole entry): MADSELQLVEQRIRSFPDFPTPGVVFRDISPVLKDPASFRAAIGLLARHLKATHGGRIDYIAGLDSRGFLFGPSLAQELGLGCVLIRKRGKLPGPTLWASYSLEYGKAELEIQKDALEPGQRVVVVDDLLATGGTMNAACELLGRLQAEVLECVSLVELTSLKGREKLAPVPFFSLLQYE

[3] = biological target: BMP-2-inducible protein kinase (Homo sapiens, UniProt Q9NSY1)
BMP-2-inducible protein kinase, sequence (Q9NSY1 whole entry): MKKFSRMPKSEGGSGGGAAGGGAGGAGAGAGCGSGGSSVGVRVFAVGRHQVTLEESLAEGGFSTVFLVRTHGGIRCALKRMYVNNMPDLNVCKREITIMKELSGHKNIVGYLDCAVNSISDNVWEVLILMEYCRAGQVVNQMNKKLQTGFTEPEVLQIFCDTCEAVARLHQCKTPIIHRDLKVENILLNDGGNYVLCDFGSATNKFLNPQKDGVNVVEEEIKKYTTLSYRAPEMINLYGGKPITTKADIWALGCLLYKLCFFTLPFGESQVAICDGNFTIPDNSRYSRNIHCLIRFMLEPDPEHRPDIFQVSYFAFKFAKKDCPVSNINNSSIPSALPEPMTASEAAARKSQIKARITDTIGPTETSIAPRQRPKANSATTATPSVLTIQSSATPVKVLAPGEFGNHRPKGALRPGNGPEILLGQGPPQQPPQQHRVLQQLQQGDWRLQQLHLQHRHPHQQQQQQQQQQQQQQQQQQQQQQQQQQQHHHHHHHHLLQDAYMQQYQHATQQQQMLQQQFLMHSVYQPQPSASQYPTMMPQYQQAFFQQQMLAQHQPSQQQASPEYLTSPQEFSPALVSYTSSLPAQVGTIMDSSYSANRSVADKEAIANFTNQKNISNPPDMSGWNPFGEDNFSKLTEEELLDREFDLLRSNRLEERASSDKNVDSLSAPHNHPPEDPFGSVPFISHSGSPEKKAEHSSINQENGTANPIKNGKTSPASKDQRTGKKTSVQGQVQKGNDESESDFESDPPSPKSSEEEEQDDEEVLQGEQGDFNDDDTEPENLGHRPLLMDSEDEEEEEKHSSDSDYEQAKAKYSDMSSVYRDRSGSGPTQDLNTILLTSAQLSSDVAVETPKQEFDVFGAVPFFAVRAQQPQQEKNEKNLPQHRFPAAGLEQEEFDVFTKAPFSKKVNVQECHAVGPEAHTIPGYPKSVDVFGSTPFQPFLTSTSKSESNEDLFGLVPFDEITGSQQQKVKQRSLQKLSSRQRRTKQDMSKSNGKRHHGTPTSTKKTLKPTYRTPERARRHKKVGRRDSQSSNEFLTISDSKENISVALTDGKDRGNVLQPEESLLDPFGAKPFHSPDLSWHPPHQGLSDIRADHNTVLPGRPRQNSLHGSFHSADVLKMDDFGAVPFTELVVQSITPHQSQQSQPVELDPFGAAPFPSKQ

[4] = biological target: T2, Electron transfer flavoprotein subunit beta (Homo sapiens, UniProt P38117)
T2 sequence (P38117 whole entry): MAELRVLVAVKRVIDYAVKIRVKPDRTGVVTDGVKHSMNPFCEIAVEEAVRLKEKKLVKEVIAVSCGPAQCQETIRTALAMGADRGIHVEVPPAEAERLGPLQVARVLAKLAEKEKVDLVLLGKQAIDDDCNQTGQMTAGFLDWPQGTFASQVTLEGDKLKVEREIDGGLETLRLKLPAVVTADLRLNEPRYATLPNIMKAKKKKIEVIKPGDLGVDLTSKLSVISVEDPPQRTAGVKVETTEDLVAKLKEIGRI

[5] = biological target: Tyrosine-protein kinase Fer (Homo sapiens, UniProt P16591)
Tyrosine-protein kinase Fer, sequence (P16591 whole entry): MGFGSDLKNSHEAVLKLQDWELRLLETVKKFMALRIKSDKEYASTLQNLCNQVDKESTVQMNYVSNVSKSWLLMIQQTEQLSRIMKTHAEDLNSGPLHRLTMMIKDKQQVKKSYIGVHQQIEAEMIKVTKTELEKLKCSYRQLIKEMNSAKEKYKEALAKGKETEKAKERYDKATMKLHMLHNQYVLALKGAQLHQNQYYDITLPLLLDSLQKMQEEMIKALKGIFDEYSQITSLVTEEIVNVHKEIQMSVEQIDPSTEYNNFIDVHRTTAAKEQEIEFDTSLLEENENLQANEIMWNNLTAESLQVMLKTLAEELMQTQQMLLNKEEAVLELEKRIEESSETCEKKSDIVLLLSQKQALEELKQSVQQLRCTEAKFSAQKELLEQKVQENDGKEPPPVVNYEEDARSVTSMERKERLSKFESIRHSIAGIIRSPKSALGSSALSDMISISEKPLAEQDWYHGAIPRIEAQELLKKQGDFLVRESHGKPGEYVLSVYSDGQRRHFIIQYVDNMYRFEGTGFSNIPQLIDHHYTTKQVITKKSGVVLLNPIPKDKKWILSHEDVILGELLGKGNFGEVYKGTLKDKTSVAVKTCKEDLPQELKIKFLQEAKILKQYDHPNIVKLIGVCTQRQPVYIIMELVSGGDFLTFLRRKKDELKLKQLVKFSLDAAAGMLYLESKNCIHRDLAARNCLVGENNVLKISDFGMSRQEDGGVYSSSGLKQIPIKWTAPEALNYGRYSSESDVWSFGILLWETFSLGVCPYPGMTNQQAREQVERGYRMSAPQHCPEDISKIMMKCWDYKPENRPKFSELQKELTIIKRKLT

[6] = biological target: Tyrosine-protein kinase Fyn (Homo sapiens, UniProt P06241)
[7] = biological target: Inosine-5'-monophosphate dehydrogenase 2 (Homo sapiens, UniProt P12268)
[8] = biological target: LIM domain kinase 1 (Homo sapiens, UniProt P53667)
[9] = biological target: T3, Mitogen-activated protein kinase kinase kinase kinase 3 (Homo sapiens, UniProt Q8IVH8)
T3 sequence (Q8IVH8 whole entry): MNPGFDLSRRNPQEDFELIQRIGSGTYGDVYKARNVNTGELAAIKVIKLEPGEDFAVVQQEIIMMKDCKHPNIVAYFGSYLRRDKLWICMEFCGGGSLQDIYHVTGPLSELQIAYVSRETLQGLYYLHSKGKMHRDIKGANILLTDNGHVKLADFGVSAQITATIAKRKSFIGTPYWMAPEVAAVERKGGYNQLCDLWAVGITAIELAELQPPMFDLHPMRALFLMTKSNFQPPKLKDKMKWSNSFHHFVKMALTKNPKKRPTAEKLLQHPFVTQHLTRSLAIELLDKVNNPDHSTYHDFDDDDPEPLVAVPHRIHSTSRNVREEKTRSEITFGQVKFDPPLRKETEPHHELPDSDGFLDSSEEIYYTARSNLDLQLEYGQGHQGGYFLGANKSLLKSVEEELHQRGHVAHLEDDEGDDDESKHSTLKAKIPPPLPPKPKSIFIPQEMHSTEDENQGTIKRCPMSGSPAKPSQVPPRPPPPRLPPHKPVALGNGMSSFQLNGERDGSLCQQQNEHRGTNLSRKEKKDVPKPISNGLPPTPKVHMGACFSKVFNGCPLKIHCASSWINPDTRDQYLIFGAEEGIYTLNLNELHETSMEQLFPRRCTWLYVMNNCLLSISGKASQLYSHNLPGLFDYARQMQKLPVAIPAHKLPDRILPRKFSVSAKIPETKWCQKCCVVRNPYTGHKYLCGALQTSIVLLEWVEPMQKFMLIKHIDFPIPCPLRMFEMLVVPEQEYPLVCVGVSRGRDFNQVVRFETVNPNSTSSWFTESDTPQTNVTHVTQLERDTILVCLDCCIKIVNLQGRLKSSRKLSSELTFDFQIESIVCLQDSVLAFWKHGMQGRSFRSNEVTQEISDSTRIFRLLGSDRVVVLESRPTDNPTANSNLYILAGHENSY

[10] = biological target: Mitogen-activated protein kinase 8 (Homo sapiens, UniProt P45983)
[11] = biological target: T4, NUAK family SNF1-like kinase 2 (Homo sapiens, UniProt Q9H093)
T4 sequence (Q9H093 whole entry): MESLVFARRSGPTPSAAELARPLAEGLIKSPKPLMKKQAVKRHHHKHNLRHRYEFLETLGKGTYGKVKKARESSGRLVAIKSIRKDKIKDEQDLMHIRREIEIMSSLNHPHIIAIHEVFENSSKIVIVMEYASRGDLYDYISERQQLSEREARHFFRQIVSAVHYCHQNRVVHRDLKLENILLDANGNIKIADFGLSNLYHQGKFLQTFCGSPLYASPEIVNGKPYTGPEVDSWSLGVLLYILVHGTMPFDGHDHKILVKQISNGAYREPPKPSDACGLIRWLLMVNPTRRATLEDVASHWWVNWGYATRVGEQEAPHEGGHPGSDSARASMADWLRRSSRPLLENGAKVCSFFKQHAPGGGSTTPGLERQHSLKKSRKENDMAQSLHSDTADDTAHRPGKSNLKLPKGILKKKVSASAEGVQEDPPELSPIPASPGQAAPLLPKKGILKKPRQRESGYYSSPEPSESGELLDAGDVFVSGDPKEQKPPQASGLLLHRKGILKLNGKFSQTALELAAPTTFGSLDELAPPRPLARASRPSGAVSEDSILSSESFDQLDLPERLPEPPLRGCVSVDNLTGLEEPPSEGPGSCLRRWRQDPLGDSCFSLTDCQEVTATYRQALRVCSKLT

[12] = biological target: Ribosomal protein S6 kinase alpha-1 (Homo sapiens, UniProt Q15418)
Ribosomal protein S6 kinase alpha-1, sequence (Q15418 whole entry): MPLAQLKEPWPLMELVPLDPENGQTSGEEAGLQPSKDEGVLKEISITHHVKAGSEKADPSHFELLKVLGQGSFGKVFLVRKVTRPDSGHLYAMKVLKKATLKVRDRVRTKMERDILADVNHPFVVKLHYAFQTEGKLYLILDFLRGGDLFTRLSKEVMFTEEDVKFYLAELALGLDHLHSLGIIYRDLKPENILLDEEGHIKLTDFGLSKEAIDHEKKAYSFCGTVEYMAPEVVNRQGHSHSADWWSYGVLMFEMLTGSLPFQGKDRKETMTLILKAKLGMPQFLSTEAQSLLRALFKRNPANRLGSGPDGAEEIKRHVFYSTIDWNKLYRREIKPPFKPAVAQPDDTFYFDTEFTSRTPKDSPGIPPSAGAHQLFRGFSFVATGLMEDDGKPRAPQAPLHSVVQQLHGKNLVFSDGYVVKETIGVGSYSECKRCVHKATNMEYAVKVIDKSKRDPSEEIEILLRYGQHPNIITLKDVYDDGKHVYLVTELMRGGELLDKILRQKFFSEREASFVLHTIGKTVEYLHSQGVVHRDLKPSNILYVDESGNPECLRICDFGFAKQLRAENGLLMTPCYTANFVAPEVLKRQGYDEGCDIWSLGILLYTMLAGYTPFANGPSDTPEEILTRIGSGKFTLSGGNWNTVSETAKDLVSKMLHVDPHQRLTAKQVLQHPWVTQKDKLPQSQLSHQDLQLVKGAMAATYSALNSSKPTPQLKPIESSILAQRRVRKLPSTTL

[13] = biological target: Serine/threonine-protein kinase SIK3 (Homo sapiens, UniProt Q9Y2K2)
[14] = biological target: T5, ADP/ATP translocase 3 (Homo sapiens, UniProt P12236)
T5 sequence (P12236 whole entry): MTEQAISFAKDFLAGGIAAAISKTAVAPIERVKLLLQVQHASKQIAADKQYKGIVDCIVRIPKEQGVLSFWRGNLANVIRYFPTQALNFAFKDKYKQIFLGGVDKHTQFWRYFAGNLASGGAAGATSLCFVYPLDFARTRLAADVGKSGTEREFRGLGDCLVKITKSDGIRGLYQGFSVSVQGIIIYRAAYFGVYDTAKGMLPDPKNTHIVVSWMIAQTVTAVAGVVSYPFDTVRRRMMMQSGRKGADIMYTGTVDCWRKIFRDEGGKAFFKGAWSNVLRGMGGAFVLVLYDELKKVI

[15] = biological target: Serine/threonine-protein kinase MRCK gamma (Homo sapiens, UniProt Q6DT37)
Serine/threonine-protein kinase MRCK gamma, sequence (Q6DT37 whole entry): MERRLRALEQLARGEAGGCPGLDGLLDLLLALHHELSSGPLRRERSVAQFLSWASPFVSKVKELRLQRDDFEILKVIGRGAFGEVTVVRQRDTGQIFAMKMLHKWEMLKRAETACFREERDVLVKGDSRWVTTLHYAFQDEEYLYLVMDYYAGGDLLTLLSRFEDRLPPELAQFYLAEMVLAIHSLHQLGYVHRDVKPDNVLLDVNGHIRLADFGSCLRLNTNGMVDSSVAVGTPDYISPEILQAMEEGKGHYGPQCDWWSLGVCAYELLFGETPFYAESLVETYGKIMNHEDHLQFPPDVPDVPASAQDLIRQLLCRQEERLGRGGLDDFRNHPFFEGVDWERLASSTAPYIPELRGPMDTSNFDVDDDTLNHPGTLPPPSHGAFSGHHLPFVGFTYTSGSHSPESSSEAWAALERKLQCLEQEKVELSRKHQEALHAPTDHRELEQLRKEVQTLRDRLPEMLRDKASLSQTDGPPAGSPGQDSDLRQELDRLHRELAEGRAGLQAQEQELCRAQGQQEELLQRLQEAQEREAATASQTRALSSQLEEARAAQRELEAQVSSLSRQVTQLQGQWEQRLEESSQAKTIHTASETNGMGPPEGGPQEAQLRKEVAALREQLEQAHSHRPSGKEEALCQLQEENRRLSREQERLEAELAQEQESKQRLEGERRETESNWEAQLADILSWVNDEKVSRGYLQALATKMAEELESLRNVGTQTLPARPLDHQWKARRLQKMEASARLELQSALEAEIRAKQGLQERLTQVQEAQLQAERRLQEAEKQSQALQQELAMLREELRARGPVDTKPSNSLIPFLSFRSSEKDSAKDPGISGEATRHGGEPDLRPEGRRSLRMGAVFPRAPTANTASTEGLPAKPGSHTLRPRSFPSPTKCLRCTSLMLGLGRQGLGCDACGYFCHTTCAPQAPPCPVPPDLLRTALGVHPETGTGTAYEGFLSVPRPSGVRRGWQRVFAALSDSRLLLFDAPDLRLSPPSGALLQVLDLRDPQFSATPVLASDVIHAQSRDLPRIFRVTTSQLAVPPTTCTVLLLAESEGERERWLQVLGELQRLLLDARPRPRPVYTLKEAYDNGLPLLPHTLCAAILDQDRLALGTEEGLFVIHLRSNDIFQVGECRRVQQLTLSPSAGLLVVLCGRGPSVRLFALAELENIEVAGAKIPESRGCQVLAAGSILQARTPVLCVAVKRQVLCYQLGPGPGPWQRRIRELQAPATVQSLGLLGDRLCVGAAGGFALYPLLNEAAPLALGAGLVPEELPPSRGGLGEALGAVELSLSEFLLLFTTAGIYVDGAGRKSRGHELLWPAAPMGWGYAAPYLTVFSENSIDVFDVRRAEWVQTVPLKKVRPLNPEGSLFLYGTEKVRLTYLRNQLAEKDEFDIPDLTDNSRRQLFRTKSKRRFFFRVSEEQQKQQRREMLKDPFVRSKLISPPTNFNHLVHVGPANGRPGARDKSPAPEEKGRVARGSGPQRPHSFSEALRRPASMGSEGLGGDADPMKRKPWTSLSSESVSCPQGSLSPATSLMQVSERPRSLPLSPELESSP

[16] = biological target: Mitogen-activated protein kinase 11 (Homo sapiens, UniProt Q15759)
Mitogen-activated protein kinase 11, sequence (Q15759 whole entry): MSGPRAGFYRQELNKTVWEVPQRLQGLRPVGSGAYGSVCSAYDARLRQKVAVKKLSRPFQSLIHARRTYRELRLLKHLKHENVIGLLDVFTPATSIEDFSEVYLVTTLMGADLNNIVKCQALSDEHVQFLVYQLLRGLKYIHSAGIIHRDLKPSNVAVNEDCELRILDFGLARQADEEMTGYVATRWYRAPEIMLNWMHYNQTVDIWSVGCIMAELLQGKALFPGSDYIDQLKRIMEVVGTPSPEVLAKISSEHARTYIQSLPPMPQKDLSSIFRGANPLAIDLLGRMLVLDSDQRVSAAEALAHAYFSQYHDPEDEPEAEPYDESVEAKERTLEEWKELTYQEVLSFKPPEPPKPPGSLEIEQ
Further: in the data inactive means no Kd found up to 30 µM.

Adenosine kinase, sequence (P55263 whole entry): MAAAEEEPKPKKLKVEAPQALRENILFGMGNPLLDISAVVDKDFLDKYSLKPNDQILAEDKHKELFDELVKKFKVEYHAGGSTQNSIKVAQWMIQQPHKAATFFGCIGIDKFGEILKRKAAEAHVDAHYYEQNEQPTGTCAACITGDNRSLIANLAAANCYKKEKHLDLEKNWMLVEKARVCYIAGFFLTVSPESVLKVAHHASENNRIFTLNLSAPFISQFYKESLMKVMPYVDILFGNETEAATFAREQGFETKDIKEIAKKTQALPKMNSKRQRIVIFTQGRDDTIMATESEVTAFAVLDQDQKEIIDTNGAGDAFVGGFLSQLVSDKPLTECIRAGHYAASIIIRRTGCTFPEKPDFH

| SMILES | Kd [1] | Kd [2] | Kd [3] | Kd [4] | Kd [5] | Kd [6] | Kd [7] | Kd [8] | Kd [9] | Kd [10] | Kd [11] | Kd [12] | Kd [13] | Kd [14] | Kd [15] | Kd [16] |
| --- | --- | --- | --- | --- | --- | --- | --- | --- | --- | --- | --- | --- | --- | --- | --- | --- |
| CNC(=O)c1cc(COc2nnc(Nc3ccc(Cl)cc3)c3ccoc23)ccn1 [TELATINIB] | > 30 µM (inactive) |  | > 30 µM (inactive) | > 30 µM (inactive) | > 30 µM (inactive) | > 30 µM (inactive) | > 30 µM (inactive) | > 30 µM (inactive) | > 30 µM (inactive) | > 30 µM (inactive) | > 30 µM (inactive) | > 30 µM (inactive) | > 30 µM (inactive) | > 30 µM (inactive) | > 30 µM (inactive) | > 30 µM (inactive) |
| CC(C)CC(=O)Nc1[nH]nc2c1CN(C(=O)C1CCN(C)CC1)C2(C)C [PHA-793887] | > 30 µM (inactive) | > 30 µM (inactive) | > 30 µM (inactive) | > 30 µM (inactive) |  | > 30 µM (inactive) | > 30 µM (inactive) | > 30 µM (inactive) | > 30 µM (inactive) | > 30 µM (inactive) | > 30 µM (inactive) | > 30 µM (inactive) | > 30 µM (inactive) | > 30 µM (inactive) | > 30 µM (inactive) | > 30 µM (inactive) |
| CCc1nc(C(N)=O)c(Nc2ccc(N3CCC(N4CCN(C)CC4)CC3)c(OC)c2)nc1NC1CCOCC1 [GILTERITINIB] | > 30 µM (inactive) |  | 0.046 µM (active) | > 30 µM (inactive) |  | > 30 µM (inactive) | > 30 µM (inactive) | > 30 µM (inactive) |  | 0.736 µM (active) | > 30 µM (inactive) | 3.44 µM (active) | > 30 µM (inactive) | 0.495 µM |  | > 30 µM (inactive) |
| CCOc1ccn(-c2ccc(F)cc2)c(=O)c1C(=O)Nc1ccc(Oc2ccnc(N)c2Cl)c(F)c1 [BMS-777607] | > 30 µM (inactive) | > 30 µM (inactive) | > 30 µM (inactive) | > 30 µM (inactive) | > 30 µM (inactive) | > 30 µM (inactive) | > 30 µM (inactive) | > 30 µM (inactive) | > 30 µM (inactive) | > 30 µM (inactive) | > 30 µM (inactive) | > 30 µM (inactive) | > 30 µM (inactive) | > 30 µM (inactive) |  | > 30 µM (inactive) |
| Cc1c(Cn2c(C)nc3c(C(=O)O)cc(N4CCOCC4)cc32)cccc1C(F)(F)F [GSK-2636771] | > 30 µM (inactive) |  | > 30 µM (inactive) | > 30 µM (inactive) | > 30 µM (inactive) | > 30 µM (inactive) | > 30 µM (inactive) | > 30 µM (inactive) | > 30 µM (inactive) | > 30 µM (inactive) | > 30 µM (inactive) | > 30 µM (inactive) | > 30 µM (inactive) | > 30 µM (inactive) | > 30 µM (inactive) | > 30 µM (inactive) |

Results, then the compound that gave them:

| Kd [1] | Kd [2] | Kd [3] | Kd [4] | Kd [5] | Kd [6] | Kd [7] | Kd [8] | Kd [9] | Kd [10] | Kd [11] | Kd [12] | Kd [13] | Kd [14] | Kd [15] | Kd [16] | SMILES |
| --- | --- | --- | --- | --- | --- | --- | --- | --- | --- | --- | --- | --- | --- | --- | --- | --- |
| > 30 µM (inactive) | > 30 µM (inactive) | > 30 µM (inactive) | > 30 µM (inactive) | > 30 µM (inactive) | > 30 µM (inactive) | > 30 µM (inactive) | > 30 µM (inactive) | > 30 µM (inactive) | > 30 µM (inactive) | > 30 µM (inactive) | > 30 µM (inactive) | > 30 µM (inactive) | > 30 µM (inactive) |  |  | NC(=O)c1ccc(N(C(N)=O)c2c(F)cccc2F)nc1-c1ccc(F)cc1F [VX-702] |
| > 30 µM (inactive) | > 30 µM (inactive) | 5.75 µM (active) | > 30 µM (inactive) | > 30 µM (inactive) | > 30 µM (inactive) | > 30 µM (inactive) | > 30 µM (inactive) | > 30 µM (inactive) | > 30 µM (inactive) | > 30 µM (inactive) | > 30 µM (inactive) | > 30 µM (inactive) | > 30 µM (inactive) |  | > 30 µM (inactive) | CC[C@@](C)(Nc1ccnc(-c2c[nH]c3ncccc23)n1)C(=O)NCC(F)(F)F [DECERNOTINIB] |
| > 30 µM (inactive) | > 30 µM (inactive) | > 30 µM (inactive) |  | > 30 µM (inactive) | > 30 µM (inactive) | > 30 µM (inactive) | > 30 µM (inactive) | > 30 µM (inactive) | > 30 µM (inactive) | > 30 µM (inactive) | > 30 µM (inactive) | > 30 µM (inactive) | > 30 µM (inactive) | > 30 µM (inactive) | > 30 µM (inactive) | O=C(Nc1ccc(OC(F)(F)F)cc1)c1sccc1NCc1ccnc2ccccc12 [OSI-930] |
| > 30 µM (inactive) |  | > 30 µM (inactive) | > 30 µM (inactive) | > 30 µM (inactive) | > 30 µM (inactive) | > 30 µM (inactive) | > 30 µM (inactive) | > 30 µM (inactive) | > 30 µM (inactive) | > 30 µM (inactive) | > 30 µM (inactive) | > 30 µM (inactive) | > 30 µM (inactive) | > 30 µM (inactive) | > 30 µM (inactive) | COc1cc2ncnc(Nc3ccc(F)c(Cl)c3)c2cc1NC(=O)/C=C/CN1CCCCC1 [DACOMITINIB ANHYDROUS] |
| > 30 µM (inactive) | > 30 µM (inactive) | > 30 µM (inactive) | > 30 µM (inactive) | > 30 µM (inactive) | > 30 µM (inactive) | > 30 µM (inactive) | > 30 µM (inactive) | > 30 µM (inactive) | > 30 µM (inactive) |  | > 30 µM (inactive) | > 30 µM (inactive) | > 30 µM (inactive) | > 30 µM (inactive) | > 30 µM (inactive) | COc1ccc2c(OCc3nnc4ccc(-c5ccccc5)nn34)ccnc2c1 [AMG-208] |
